The source of these data is patent US10035801B2, “Pyrazolo compounds and uses thereof” (CONSTELLATION PHARMACEUTICALS, INC., priority 2013, dated 2018).

What all share (format): biochemical
Assay [1] addresses T1, GASC1 (Homo sapiens, UniProt Q9H3R0).
T1 construct: 6×His tagged recombinant GASC1 (N 350aa) was purified from E. Coli BL21(DE3); 6xHis; made in house; host or cells: E. coli BL21(DE3)
T1 sequence (Q9H3R0 1-350 limits assumed): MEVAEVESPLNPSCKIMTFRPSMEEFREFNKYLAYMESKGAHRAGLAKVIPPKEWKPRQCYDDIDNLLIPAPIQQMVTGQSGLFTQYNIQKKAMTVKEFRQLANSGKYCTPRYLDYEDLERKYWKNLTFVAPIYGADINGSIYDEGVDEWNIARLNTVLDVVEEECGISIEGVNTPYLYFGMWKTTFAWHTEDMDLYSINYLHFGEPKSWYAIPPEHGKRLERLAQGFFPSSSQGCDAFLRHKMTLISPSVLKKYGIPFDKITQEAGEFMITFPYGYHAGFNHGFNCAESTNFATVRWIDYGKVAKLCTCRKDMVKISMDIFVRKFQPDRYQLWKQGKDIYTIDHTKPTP
Put plainly: GASC1 demethylation assay on H3K9Me3 peptide (RapidFire HT-MS). The note with it: read-out: GASC1 Inhibition. How it is done: 6×His tagged recombinant GASC1 (N 350aa) was purified from E. Coli BL21(DE3) to near homogeneity. The demethylation reaction buffer contained 50 mM TrisCl pH 7.5, 0.01% Triton X-100, 5% glycerol, 1 mM ascorbate (Cat# A4034, Sigma Aldrich), 5 μM α-ketoglutarate (# K2010, Sigma Aldrich) and 20 μM Fe2(NH4)2(SO4)2 (Cat# F1543, Sigma Aldrich). In 25 μL demethylation reaction system, 400 nM recombinant GASC1 and 20 μM H3K9me3 peptide (1-21 aa) were incubated with compounds for 10 minutes, and then α-ketoglutarate and Fe2(NH4)2(SO4)2 were added to initiate the reaction. All of the reactions were incubated for 45 minutes at room temperature, and then 25 μl of 1 N HCl was added to quench the reactions. After termination, plates were sealed and frozen at −80° C. and shipped on dry ice to BioTrove Inc. (Woburn, Mass.) for analysis.
All the reactions were read by RapidFire™ HT-MS platform developed in BioTrove Inc, and the method has been described in detail previously (Assay and Drug Development Technologies, 2004; 2(4): 373-381). Briefly, at BioTrove, plates were thawed and immediately analyzed using RapidFire™ system coupled to a Sciex API4000 triple quadrapole mass spectrometer. The samples were delivered directly from the plate to a clean-up cartridge (BioTrove column A) to remove nonvolatile assay components with 0.1% formic acid in a 3-sec wash cycle. The peptide substrate and demethylated product were coeluted to the mass spectrometer with 80% acetonitrile, 0.1% formic acid. Both the substrate and product signals were read at their +5 charge species, and the conversion from substrate to product is assessed by [H3K9me2 Read]/[H3K9me2 Read+H3K9me3 Read].

The target in assay [2] is T2, PLU-1 (Homo sapiens, UniProt Q9UGL1).
T2 construct: FLAG tagged full length recombinant JARID1A and PLU1 proteins were purified from Sf9 insect cells; FLAG; made in house; host or cells: Sf9 insect cells
Put plainly: PLU-1 demethylase assay on H3K4Me3 peptide (RapidFire HT-MS). The procedure: (§1) FLAG tagged full length recombinant JARID1A and PLU1 proteins were purified from Sf9 insect cells to near homogeneity. The demethylation reaction buffer contained 50 mM TrisCl pH 7.5, 0.01% Triton X-100, 0.005% BSA, 1 mM ascorbate (Cat# A4034, Sigma Aldrich), 1.7 μM α-ketoglutarate (# K2010, Sigma Aldrich) and 20 μM Fe2(NH4)2(SO4)2 (Cat# F1543, Sigma Aldrich). In a 25 μL demethylation reaction system, 20 nM recombinant JARID1A or PLU1 proteins and 4 μM H3K4me3 peptide (1-21 aa), which can be biotinylated or unlabelled, were incubated with compounds for 10 minutes, and then α-ketoglutarate and Fe2(NH4)2(SO4)2 were added to initiate the reaction. All of the reactions were incubated for 45 minutes at room temperature, and then 25 μl of 1 N HCl was added to quench the reactions. After termination, plates were sealed and frozen at −80° C. for analysis.
(§2) All the reactions were read by RapidFire™ HT-MS platform developed in BioCius Inc, and described in detail (Assay and Drug Development Technologies, 2004; 2(4): 373-381). Briefly, plates were thawed and immediately analyzed using RapidFire™ system coupled to a Sciex API4000 triple quadrapole mass spectrometer. The samples were delivered directly from the plate to a clean-up cartridge (BioCius column A) to remove nonvolatile assay components with 0.1% formic acid in a 3-sec wash cycle. The peptide substrate and demethylated product were coeluted to the mass spectrometer with 80% acetonitrile, 0.1% formic acid. Both the substrate and product signals were read at their +5 charge species, and the conversion from substrate to product assessed by [H3K4me2 Read]/[H3K4me2 Read+H3K4me3 Read].

Assay [3] concerns the target T3, JARID1A (Homo sapiens, UniProt P29375).
T3 construct: FLAG tagged full length recombinant JARID1A and PLU1 proteins were purified from Sf9 insect cells; FLAG; made in house; host or cells: Sf9 insect cells
Put plainly: JARID1A demethylase assay on H3K4Me3 peptide (RapidFire HT-MS). How it is done: as §1, §2

T2 sequence (Q9UGL1 whole entry): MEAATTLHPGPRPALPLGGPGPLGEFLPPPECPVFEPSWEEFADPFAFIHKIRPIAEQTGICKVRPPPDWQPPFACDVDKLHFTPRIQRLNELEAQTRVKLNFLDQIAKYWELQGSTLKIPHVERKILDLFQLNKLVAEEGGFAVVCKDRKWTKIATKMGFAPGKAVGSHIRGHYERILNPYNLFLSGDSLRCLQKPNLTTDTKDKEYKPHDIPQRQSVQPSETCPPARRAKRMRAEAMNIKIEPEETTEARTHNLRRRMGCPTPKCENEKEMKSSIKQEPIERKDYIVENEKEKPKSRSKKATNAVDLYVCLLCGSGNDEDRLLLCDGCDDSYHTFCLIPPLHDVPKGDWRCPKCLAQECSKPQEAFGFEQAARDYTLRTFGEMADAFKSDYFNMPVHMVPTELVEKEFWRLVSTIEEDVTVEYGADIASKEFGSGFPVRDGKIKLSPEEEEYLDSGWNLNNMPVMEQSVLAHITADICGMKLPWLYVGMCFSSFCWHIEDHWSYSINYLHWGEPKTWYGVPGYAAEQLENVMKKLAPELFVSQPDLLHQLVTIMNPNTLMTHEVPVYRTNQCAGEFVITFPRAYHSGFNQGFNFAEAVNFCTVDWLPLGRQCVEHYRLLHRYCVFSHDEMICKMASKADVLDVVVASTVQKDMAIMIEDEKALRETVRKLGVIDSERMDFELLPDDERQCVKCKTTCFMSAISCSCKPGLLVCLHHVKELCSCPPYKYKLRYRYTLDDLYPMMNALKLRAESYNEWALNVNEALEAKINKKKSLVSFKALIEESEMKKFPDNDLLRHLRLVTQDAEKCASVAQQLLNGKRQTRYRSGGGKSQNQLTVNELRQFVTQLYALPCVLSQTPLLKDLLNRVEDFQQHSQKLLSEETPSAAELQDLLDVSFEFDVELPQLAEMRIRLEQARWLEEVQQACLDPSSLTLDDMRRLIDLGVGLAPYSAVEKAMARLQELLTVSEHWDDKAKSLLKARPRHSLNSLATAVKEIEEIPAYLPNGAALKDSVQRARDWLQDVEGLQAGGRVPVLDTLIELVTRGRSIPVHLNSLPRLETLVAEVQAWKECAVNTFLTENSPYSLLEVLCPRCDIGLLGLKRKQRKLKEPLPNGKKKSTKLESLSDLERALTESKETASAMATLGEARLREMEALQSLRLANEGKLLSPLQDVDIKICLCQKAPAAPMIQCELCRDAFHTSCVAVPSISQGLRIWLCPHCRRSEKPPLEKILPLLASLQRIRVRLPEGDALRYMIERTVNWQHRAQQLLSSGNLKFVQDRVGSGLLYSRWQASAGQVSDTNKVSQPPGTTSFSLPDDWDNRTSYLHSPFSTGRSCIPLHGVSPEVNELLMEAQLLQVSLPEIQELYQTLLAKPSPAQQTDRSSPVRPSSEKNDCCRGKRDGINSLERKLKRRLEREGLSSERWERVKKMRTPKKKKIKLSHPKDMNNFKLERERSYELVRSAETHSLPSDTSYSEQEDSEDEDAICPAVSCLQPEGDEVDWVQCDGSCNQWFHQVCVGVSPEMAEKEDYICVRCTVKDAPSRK
T3 sequence (P29375 whole entry): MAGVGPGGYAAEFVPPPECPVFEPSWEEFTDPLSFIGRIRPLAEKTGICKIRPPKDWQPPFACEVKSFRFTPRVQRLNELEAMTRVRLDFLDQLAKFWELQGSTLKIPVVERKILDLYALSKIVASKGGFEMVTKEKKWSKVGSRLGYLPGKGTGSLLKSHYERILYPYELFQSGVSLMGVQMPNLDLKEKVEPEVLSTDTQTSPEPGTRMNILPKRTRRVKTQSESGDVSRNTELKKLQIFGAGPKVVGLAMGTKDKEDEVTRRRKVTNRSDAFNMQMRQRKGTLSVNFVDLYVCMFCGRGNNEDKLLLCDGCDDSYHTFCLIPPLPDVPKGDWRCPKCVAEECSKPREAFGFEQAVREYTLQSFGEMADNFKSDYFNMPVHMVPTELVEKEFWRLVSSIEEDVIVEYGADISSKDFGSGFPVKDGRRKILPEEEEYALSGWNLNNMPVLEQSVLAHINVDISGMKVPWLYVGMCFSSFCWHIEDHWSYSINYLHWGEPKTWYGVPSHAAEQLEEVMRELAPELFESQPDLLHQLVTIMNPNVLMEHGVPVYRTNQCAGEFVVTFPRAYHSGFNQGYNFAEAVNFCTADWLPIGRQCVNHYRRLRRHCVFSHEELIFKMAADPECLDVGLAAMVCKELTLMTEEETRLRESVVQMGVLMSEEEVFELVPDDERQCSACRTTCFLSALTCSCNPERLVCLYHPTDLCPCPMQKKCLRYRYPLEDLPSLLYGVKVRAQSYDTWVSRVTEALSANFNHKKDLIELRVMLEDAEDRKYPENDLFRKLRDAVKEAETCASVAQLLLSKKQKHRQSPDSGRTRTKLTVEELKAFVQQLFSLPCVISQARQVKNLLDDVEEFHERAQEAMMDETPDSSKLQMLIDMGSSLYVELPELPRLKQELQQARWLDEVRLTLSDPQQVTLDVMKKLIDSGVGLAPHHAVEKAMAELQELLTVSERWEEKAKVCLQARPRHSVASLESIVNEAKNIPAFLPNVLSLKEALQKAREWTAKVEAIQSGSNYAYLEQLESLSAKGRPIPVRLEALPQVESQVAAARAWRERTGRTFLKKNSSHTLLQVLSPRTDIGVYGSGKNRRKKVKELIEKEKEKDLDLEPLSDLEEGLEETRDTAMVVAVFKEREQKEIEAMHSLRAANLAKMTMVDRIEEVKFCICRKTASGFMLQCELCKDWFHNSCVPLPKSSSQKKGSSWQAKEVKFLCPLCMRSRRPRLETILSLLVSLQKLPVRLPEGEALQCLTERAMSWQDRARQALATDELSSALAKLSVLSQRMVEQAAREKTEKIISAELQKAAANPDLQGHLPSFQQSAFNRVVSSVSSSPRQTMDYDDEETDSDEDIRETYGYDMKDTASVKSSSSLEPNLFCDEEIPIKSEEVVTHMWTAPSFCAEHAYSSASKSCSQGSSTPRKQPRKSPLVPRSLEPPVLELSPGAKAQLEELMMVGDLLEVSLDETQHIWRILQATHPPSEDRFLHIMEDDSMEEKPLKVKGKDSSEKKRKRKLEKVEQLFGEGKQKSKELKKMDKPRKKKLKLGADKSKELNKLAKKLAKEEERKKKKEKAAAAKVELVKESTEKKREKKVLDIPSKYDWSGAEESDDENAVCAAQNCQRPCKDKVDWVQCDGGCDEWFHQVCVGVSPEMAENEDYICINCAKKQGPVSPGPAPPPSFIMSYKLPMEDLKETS

With `CCc1c(C)n(C)c2c(C#N)cnn2c1=O` [Compound I-29], the IC50 was no less than 50000 nM in assay [1], 1000 to 10000 nM in assay [2] and 1000 to 10000 nM in assay [3].
As to `CCc1c(COC)[nH]c2c(C#N)cnn2c1=O` [Compound I-23], the figures for the IC50 in assay [1], in assay [2] and in assay [3] were 1000 to 10000 nM, no more than 1000 nM and no more than 1000 nM, respectively.
As for `CCc1c(C)[nH]c2c(C#N)c(C)nn2c1=O` [Compound I-5], the IC50 in assay [1] was 1000 to 10000 nM.
As for `CCc1c(C(=O)NC)[nH]c2c(C#N)cnn2c1=O` [Compound I-49], the values for the IC50 in assay [1], in assay [2] and in assay [3] were 1000 to 10000 nM, 1000 to 10000 nM and no more than 1000 nM, respectively.
For `CCCc1c(C(=O)OCC)[nH]c2c(C#N)cnn2c1=O` [Compound I-43], the IC50 in assay [1] lay in the range of 1000 to 10000 nM.
The same measure, in the same setting: the value for `COc1c2c(nc3c(C#N)cnn13)CCCC2` [Compound I-54] was 1000 to 10000 nM; that for `C#CCc1c(C)[nH]c2c(C#N)cnn2c1=O` [Compound I-46] was no more than 1000 nM.
Same read-out and setting: the value for `CCc1c(C(=O)OCc2ccccc2)[nH]c2c(C#N)cnn2c1=O` [Compound I-53] was 1000 to 10000 nM; that for `CCc1c(-c2ccccc2)[nH]c2c(C#N)cnn2c1=O` [Compound I-47] was no more than 1000 nM.
With `CCc1c(CO)[nH]c2c(C#N)cnn2c1=O` [Compound I-21], the IC50 in assay [1], in assay [2] and in assay [3] was no more than 1000 nM throughout.
As for `CCOC(=O)c1[nH]c2c(C#N)cnn2c(=O)c1CC` [Compound I-25], the IC50 in assay [1], in assay [2] and in assay [3] was no more than 1000 nM throughout.
